Assay results taken from ChEMBL document CHEMBL3991601, “The target landscape of clinical kinase drugs” (Science, 2017).
Active and inactive are the calls of the source. Cut-off read from the data, not from the text of the source, for most assays here: actives have a measured Kd and inactives only a lower limit.

Legend:
[1] = target: Cyclin-dependent kinase 13 (Homo sapiens, UniProt Q14004)
[2] = target: T1, Discoidin domain-containing receptor 2 (Homo sapiens, UniProt Q16832)
T1 sequence (Q16832 whole entry): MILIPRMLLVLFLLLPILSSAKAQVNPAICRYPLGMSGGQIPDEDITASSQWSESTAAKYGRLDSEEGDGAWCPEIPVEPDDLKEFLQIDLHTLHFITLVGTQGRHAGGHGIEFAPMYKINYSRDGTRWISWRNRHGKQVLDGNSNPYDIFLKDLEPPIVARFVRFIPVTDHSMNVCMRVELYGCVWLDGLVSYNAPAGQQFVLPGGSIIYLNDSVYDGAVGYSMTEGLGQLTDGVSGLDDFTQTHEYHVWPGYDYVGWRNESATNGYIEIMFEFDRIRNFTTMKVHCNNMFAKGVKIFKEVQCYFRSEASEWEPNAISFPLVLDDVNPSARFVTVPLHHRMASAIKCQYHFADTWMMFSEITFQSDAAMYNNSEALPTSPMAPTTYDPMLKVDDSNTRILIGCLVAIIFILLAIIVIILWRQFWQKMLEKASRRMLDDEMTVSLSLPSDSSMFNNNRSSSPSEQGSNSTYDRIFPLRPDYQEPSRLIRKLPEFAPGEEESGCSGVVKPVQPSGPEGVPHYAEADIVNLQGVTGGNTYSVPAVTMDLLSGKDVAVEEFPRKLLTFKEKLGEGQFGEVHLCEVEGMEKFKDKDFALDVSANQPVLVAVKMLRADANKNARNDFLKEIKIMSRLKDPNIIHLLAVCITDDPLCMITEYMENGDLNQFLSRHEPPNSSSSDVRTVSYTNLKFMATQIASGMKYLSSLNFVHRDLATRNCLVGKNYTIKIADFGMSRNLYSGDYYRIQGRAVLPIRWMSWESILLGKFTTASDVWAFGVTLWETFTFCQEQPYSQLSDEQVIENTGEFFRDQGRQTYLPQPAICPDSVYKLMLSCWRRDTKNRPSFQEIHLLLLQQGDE

[3] = target: Interleukin-1 receptor-associated kinase 1 (Homo sapiens, UniProt P51617)
[4] = target: S-adenosylmethionine synthase isoform type-2 (Homo sapiens, UniProt P31153)
[5] = target: T2, Serine/threonine-protein kinase Nek3 (Homo sapiens, UniProt P51956)
T2 sequence (P51956 whole entry): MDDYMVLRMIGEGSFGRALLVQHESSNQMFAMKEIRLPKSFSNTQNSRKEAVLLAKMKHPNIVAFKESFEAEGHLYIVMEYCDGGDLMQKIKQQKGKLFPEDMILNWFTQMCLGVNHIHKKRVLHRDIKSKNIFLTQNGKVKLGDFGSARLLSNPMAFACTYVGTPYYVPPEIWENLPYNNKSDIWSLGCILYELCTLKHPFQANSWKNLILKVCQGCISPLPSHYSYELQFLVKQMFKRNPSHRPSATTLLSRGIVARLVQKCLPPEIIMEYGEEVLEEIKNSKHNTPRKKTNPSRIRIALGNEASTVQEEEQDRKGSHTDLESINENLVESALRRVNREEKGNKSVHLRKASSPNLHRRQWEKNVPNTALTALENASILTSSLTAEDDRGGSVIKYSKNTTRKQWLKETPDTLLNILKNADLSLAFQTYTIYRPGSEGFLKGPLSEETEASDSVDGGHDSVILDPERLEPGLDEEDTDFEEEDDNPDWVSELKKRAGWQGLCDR

[6] = target: T3, Serine/threonine-protein kinase D2 (Homo sapiens, UniProt Q9BZL6)
T3 sequence (Q9BZL6 whole entry): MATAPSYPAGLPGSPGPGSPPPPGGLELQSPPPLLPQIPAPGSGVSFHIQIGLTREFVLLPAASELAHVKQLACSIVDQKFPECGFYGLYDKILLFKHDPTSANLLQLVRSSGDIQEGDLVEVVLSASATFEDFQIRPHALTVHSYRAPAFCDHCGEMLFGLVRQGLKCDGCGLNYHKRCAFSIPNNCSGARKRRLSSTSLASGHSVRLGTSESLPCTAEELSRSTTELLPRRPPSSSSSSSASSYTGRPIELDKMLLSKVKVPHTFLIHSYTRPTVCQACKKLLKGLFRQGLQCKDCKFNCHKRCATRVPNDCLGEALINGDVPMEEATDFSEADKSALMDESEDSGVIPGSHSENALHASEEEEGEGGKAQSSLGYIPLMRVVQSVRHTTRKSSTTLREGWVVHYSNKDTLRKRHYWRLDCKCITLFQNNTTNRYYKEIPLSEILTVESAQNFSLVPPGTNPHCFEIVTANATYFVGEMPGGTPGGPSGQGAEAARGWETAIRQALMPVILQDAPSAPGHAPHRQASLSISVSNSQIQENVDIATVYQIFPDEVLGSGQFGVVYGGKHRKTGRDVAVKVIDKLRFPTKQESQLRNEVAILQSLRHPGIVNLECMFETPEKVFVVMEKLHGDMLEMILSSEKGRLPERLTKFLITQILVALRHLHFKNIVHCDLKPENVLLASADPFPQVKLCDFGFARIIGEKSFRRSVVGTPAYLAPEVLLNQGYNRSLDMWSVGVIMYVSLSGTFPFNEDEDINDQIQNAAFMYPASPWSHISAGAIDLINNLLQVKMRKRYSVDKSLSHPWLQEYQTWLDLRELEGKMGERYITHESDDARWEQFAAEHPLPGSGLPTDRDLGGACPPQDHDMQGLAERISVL

[7] = target: Ribosomal protein S6 kinase alpha-5 (Homo sapiens, UniProt O75582)
[8] = target: Serine/threonine-protein kinase SIK3 (Homo sapiens, UniProt Q9Y2K2)
Note: in the data inactive means no Kd found up to 30 µM.

Sequence of Interleukin-1 receptor-associated kinase 1 (P51617 whole entry, canonical isoform): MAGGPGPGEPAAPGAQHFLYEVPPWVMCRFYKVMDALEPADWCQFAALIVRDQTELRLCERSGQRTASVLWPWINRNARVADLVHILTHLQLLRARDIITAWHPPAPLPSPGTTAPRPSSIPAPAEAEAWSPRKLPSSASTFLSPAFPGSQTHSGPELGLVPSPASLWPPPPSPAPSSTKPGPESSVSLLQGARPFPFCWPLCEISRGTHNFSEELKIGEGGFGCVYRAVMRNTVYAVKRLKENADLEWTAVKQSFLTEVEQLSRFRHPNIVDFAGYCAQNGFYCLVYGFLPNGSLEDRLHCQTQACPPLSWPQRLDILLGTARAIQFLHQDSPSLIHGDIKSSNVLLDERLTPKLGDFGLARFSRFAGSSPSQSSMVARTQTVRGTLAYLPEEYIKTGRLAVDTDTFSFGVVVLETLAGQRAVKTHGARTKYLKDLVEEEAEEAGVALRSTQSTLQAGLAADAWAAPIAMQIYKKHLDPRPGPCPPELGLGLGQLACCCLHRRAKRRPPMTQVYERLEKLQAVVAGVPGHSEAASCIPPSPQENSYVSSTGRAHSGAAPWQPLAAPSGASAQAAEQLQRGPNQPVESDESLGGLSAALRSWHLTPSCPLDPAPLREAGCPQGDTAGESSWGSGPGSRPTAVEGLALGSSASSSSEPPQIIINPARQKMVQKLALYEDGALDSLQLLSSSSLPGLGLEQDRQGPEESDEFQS
Sequence of S-adenosylmethionine synthase isoform type-2 (P31153 whole entry, canonical isoform): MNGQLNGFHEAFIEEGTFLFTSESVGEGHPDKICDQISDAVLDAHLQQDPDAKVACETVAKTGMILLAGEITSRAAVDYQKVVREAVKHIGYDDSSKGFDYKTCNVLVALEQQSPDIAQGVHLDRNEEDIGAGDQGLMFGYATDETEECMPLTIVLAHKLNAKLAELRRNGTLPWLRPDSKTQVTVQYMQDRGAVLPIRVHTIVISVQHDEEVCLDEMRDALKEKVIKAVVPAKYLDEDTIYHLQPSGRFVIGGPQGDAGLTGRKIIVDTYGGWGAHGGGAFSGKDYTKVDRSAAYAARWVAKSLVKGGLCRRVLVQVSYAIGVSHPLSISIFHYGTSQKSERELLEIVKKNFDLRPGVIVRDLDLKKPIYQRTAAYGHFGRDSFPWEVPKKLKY
Sequence of Cyclin-dependent kinase 13 (Q14004 whole entry, the tested form may be a part): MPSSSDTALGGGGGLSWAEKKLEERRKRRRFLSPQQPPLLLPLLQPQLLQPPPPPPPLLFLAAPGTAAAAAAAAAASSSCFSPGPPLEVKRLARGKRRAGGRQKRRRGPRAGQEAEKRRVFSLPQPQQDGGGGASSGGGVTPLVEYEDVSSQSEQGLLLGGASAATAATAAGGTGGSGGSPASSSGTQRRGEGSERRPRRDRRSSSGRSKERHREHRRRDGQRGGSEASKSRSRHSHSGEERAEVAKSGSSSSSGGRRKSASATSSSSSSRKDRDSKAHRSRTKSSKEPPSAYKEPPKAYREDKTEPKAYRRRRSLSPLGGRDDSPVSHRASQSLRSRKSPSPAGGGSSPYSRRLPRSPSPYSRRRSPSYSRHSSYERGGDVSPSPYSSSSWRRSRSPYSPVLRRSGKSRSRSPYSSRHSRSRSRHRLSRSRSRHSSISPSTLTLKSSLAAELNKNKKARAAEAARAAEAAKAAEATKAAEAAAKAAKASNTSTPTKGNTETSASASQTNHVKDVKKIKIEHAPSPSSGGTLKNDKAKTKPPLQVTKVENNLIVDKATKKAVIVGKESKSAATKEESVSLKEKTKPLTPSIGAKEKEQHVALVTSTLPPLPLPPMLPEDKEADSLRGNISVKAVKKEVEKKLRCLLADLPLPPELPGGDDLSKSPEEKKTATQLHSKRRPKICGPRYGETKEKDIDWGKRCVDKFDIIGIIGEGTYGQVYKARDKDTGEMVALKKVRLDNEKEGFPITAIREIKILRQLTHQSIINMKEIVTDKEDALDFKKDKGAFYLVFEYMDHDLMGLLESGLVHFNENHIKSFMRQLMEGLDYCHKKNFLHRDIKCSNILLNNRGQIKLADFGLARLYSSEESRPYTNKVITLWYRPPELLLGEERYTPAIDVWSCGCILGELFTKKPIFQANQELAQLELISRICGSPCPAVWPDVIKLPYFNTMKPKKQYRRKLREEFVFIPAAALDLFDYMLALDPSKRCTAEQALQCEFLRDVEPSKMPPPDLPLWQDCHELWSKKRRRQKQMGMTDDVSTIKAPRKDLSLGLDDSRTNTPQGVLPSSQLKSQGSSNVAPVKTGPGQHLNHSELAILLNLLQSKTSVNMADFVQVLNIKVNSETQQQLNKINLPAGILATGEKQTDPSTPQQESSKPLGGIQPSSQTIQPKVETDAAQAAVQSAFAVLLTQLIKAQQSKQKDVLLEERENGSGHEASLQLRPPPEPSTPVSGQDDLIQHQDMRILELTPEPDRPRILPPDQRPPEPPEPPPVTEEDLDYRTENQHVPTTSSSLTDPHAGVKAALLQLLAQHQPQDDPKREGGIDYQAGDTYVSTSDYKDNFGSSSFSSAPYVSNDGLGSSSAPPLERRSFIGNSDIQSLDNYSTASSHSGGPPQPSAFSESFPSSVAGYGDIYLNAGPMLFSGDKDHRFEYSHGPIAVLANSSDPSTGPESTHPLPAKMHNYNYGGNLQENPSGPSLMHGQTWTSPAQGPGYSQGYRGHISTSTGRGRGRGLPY
Sequence of Serine/threonine-protein kinase SIK3 (Q9Y2K2 whole entry): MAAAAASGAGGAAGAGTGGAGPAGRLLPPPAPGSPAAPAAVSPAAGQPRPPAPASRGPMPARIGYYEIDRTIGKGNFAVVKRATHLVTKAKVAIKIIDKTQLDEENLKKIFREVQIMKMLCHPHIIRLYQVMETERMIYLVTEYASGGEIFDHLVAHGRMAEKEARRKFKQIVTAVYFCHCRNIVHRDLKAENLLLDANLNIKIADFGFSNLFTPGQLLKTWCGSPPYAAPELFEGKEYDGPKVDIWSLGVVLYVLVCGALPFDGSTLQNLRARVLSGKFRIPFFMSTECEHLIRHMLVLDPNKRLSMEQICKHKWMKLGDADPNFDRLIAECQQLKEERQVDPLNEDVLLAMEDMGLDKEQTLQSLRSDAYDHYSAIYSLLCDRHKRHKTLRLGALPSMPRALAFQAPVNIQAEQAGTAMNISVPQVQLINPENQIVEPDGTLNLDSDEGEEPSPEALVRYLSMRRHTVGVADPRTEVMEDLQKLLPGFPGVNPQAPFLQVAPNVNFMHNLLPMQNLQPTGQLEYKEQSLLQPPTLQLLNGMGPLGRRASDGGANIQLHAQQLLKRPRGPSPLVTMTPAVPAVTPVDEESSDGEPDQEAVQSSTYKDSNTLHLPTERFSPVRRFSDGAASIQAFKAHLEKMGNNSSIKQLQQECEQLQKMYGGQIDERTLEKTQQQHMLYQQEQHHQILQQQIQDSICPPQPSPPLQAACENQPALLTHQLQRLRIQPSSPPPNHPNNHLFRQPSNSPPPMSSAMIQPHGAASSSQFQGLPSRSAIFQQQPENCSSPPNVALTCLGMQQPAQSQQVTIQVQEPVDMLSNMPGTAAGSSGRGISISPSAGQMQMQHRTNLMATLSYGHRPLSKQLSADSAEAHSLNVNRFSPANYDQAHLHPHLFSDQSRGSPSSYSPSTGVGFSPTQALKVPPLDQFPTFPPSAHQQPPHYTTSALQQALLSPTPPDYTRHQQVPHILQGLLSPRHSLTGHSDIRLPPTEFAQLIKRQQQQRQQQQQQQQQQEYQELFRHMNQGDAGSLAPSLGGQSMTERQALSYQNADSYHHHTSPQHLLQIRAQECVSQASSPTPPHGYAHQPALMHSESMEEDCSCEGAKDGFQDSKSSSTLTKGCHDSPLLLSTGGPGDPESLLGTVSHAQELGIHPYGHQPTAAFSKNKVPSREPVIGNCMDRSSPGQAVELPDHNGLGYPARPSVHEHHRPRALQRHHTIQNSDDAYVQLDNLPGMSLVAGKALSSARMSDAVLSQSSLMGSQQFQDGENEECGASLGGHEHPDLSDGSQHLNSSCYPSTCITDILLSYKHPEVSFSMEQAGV
Sequence of Ribosomal protein S6 kinase alpha-5 (O75582 whole entry): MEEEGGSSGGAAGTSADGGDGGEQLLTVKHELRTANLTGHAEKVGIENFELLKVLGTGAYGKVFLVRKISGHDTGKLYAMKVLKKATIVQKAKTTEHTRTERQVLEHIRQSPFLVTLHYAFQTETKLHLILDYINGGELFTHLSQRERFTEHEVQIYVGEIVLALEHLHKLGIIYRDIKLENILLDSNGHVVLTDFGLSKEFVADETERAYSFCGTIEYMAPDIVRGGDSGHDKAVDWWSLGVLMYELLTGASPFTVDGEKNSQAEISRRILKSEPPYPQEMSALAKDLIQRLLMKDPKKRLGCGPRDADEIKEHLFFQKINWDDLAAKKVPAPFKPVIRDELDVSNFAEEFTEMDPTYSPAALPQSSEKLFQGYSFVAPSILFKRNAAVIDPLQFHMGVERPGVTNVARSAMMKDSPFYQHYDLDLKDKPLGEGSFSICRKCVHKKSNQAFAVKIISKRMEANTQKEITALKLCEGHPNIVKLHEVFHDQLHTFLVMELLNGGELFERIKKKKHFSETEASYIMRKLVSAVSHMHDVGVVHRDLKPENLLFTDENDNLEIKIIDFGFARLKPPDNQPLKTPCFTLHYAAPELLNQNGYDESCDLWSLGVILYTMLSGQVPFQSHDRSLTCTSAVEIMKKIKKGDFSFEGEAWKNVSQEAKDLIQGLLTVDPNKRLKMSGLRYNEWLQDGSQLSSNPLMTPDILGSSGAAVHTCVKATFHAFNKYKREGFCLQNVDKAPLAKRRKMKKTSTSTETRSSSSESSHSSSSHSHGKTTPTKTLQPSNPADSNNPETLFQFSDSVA

Compound	Kd [1]	Kd [2]	Kd [3]	Kd [4]	Kd [5]	Kd [6]	Kd [7]	Kd [8]
O=C(c1ccc(F)c(F)c1Nc1ccc(I)cc1F)N1CC(O)([C@@H]2CCCCN2)C1 [COBIMETINIB]	> 30 µM (inactive)	> 30 µM (inactive)	> 30 µM (inactive)	> 30 µM (inactive)	> 30 µM (inactive)	> 30 µM (inactive)	> 30 µM (inactive)	> 30 µM (inactive)
CCS(=O)(=O)N1CC(CC#N)(n2cc(-c3ncnc4[nH]ccc34)cn2)C1 [BARICITINIB]	> 30 µM (inactive)	> 30 µM (inactive)	> 30 µM (inactive)	> 30 µM (inactive)	> 30 µM (inactive)	> 30 µM (inactive)	> 30 µM (inactive)	> 30 µM (inactive)
COc1cc(OC)c(/C=C/S(=O)(=O)Cc2ccc(OC)c(NCC(=O)O)c2)c(OC)c1 [RIGOSERTIB]	> 30 µM (inactive)	> 30 µM (inactive)	> 30 µM (inactive)	> 30 µM (inactive)	> 30 µM (inactive)	> 30 µM (inactive)	> 30 µM (inactive)	> 30 µM (inactive)
CN1CCC(CNc2ccc3ncc(-c4cccc(OC(F)(F)F)c4)n3n2)CC1 [SGI-1776]	> 30 µM (inactive)	> 30 µM (inactive)	> 30 µM (inactive)	> 30 µM (inactive)	> 30 µM (inactive)	> 30 µM (inactive)	> 30 µM (inactive)	> 30 µM (inactive)
CC[C@@H]1C(=O)N(C)c2cnc(Nc3ccc(C(=O)N[C@H]4CC[C@H](N5CCN(CC6CC6)CC5)CC4)cc3OC)nc2N1C(C)C [VOLASERTIB]	> 30 µM (inactive)	> 30 µM (inactive)	> 30 µM (inactive)	> 30 µM (inactive)	2.96 µM (active)	> 30 µM (inactive)	> 30 µM (inactive)	> 30 µM (inactive)

Continued, values first:

Kd [1]	Kd [2]	Kd [3]	Kd [4]	Kd [5]	Kd [6]	Kd [7]	Kd [8]	Compound
> 30 µM (inactive)	> 30 µM (inactive)	> 30 µM (inactive)	> 30 µM (inactive)	> 30 µM (inactive)	> 30 µM (inactive)	> 30 µM (inactive)	> 30 µM (inactive)	CNC(=O)c1ccc(C)c(-n2c(C)cc(OCc3ccc(F)cc3F)c(Br)c2=O)c1 [PH-797804]
> 30 µM (inactive)	0.421 µM (active)	> 30 µM (inactive)	> 30 µM (inactive)	> 30 µM (inactive)	> 30 µM (inactive)	> 30 µM (inactive)	> 30 µM (inactive)	CNC(=O)c1cc(Oc2ccc(NC(=O)Nc3ccc(Cl)c(C(F)(F)F)c3)c(F)c2)ccn1 [REGORAFENIB]
> 30 µM (inactive)	0.592 µM (active)	> 30 µM (inactive)	> 30 µM (inactive)	> 30 µM (inactive)	> 30 µM (inactive)	> 30 µM (inactive)	> 30 µM (inactive)	COc1cc2nccc(Oc3ccc(NC(=O)Nc4cc(C)on4)c(Cl)c3)c2cc1OC [TIVOZANIB]
> 30 µM (inactive)	> 30 µM (inactive)	> 30 µM (inactive)	> 30 µM (inactive)	> 30 µM (inactive)	> 30 µM (inactive)	> 30 µM (inactive)	> 30 µM (inactive)	O=C1NC(=O)/C(=C/c2ccc3nccc(-c4ccncc4)c3c2)S1 [GSK-1059615]
> 30 µM (inactive)	> 30 µM (inactive)	> 30 µM (inactive)	> 30 µM (inactive)	0.353 µM (active)	66.9 µM (active)	> 30 µM (inactive)	0.206 µM (active)	O=C(Nc1ccc(-c2ccnc(Nc3ccc(N4CCOCC4)cc3)n2)cc1)C1CCCN1 (stereo not drawn) [XL-019]
> 30 µM (inactive)	> 30 µM (inactive)	> 30 µM (inactive)	> 30 µM (inactive)	> 30 µM (inactive)	> 30 µM (inactive)	> 30 µM (inactive)	> 30 µM (inactive)	C[C@@H](c1ccc2nccn2c1)n1nnc2ncc(-c3cnn(C)c3)nc21 [SAVOLITINIB]
